The supplement of paper PMC10307832

Experiments:
Test in all cases: relative viability (nuclei count vs DMSO), 5 days (fraction); higher = more cells survive
H3255 = test system: H3255
Procedure, shortened: (§1)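 Relative viability is defined as nuclei in treated wells over nuclei in vehicle wells. Duplicate plates were run and medians reported. Lung cancer cell lines in 1536-well plates were dosed by pin tool one day after seeding, with one drug or with a fixed anchor-drug dose plus five library-drug doses (not always all listed) in √10 steps, and nuclei were counted after 5 days.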

NCI-H727 = test system: NCI-H727
Procedure, shortened: as §1

LC-2-ad = test system: LC-2-ad
Procedure, shortened: as §1

PC-3 [JPC-3] = test system: PC-3 [JPC-3]
Procedure, shortened: as §1

NCI-H661 = test system: NCI-H661
Procedure, shortened: as §1

NCI-H460 = test system: NCI-H460
Procedure, shortened: as §1

NCI-H1650 = test system: NCI-H1650
Procedure, shortened: as §1

NCI-H2023 = test system: NCI-H2023
Procedure, shortened: as §1

NCI-H596 = test system: NCI-H596
Procedure, shortened: as §1

LCLC-97TM1 = test system: LCLC-97TM1
Procedure, shortened: as §1

ABC-1 = test system: ABC-1
Procedure, shortened: as §1

CAL-12T = test system: CAL-12T
Procedure, shortened: as §1

BEN = test system: BEN
Procedure, shortened: as §1

NCI-H441 = test system: NCI-H441
Procedure, shortened: as §1

NCI-H2087 = test system: NCI-H2087
Procedure, shortened: as §1

201T = test system: 201T
Procedure, shortened: as §1

NCI-H520 = test system: NCI-H520
Procedure, shortened: as §1

NCI-H1651 = test system: NCI-H1651
Procedure, shortened: as §1

NCI-H1915 = test system: NCI-H1915
Procedure, shortened: as §1

NCI-H1944 = test system: NCI-H1944
Procedure, shortened: as §1

NCI-H650 = test system: NCI-H650
Procedure, shortened: as §1

A-427 = test system: A-427
Procedure, shortened: as §1

With `O=c1cc(-c2cccc3c2Sc2ccccc2S3)oc(N2CCOCC2)c1` + CS(=O)(=O)N1CCN(Cc2cc3nc(-c4cccc5[nH]ncc45)nc(N4CCOCC4)c3s2)CC1 [Pictilisib] (partner 1 µM) the relative viability (H3255; first compound 0.08 µM) was 0.408, the relative viability (H3255; first compound 0.253 µM) was 0.463 and the relative viability (H3255; first compound 0.8 µM) was 0.427. The relative viability (H3255; first compound 2.53 µM) was 0.402, the relative viability (H3255; first compound 8 µM) was 0.513 and the relative viability (NCI-H727; first compound 0.253 µM) was 0.442. The relative viability (NCI-H727; first compound 2.53 µM) was 0.285, the relative viability (NCI-H727; first compound 8 µM) was 0.528 and the relative viability (LC-2-ad; first compound 0.08 µM) was 0.472. The relative viability (LC-2-ad; first compound 0.253 µM) was 0.545, the relative viability (LC-2-ad; first compound 0.8 µM) was 0.465 and the relative viability (LC-2-ad; first compound 2.53 µM) was 0.432. The relative viability (LC-2-ad; first compound 8 µM) was 0.425, the relative viability (PC-3 [JPC-3]; first compound 0.08 µM) was 0.694 and the relative viability (PC-3 [JPC-3]; first compound 0.253 µM) was 0.761. For the same compound, the relative viability (PC-3 [JPC-3]; first compound 0.8 µM) was 0.644, the relative viability (PC-3 [JPC-3]; first compound 2.53 µM) was 0.662 and the relative viability (PC-3 [JPC-3]; first compound 8 µM) was 0.863. It also gave a relative viability (NCI-H661; first compound 0.08 µM) of 0.352, a relative viability (NCI-H661; first compound 0.253 µM) of 0.394 and a relative viability (NCI-H661; first compound 0.8 µM) of 0.404. It also gave a relative viability (NCI-H661; first compound 2.53 µM) of 0.35, a relative viability (NCI-H661; first compound 8 µM) of 0.446 and a relative viability (NCI-H460; first compound 0.08 µM) of 0.289. The relative viability (NCI-H460; first compound 0.253 µM) was 0.452, the relative viability (NCI-H460; first compound 0.8 µM) was 0.321 and the relative viability (NCI-H460; first compound 2.53 µM) was 0.384. For the same compound, the relative viability (NCI-H460; first compound 8 µM) was 0.545, the relative viability (NCI-H1650; first compound 0.08 µM) was 0.509 and the relative viability (NCI-H1650; first compound 0.253 µM) was 0.53. The relative viability (NCI-H1650; first compound 0.8 µM) was 0.507, the relative viability (NCI-H1650; first compound 2.53 µM) was 0.522 and the relative viability (NCI-H1650; first compound 8 µM) was 0.582. The relative viability (NCI-H2023; first compound 0.08 µM) was 0.213, the relative viability (NCI-H2023; first compound 0.253 µM) was 0.294 and the relative viability (NCI-H2023; first compound 0.8 µM) was 0.244. For the same compound, the relative viability (NCI-H2023; first compound 2.53 µM) was 0.218, the relative viability (NCI-H2023; first compound 8 µM) was 0.218 and the relative viability (NCI-H596; first compound 0.08 µM) was 0.34. For the same compound, the relative viability (NCI-H596; first compound 0.253 µM) was 0.419, the relative viability (NCI-H596; first compound 0.8 µM) was 0.357 and the relative viability (NCI-H596; first compound 2.53 µM) was 0.371. For the same compound, the relative viability (NCI-H596; first compound 8 µM) was 0.403, the relative viability (LCLC-97TM1; first compound 0.08 µM) was 0.166 and the relative viability (LCLC-97TM1; first compound 0.253 µM) was 0.174. The relative viability (LCLC-97TM1; first compound 0.8 µM) was 0.208, the relative viability (LCLC-97TM1; first compound 2.53 µM) was 0.158 and the relative viability (LCLC-97TM1; first compound 8 µM) was 0.184. It also gave a relative viability (ABC-1; first compound 0.08 µM) of 0.62, a relative viability (ABC-1; first compound 0.253 µM) of 0.739 and a relative viability (ABC-1; first compound 0.8 µM) of 0.607. The relative viability (ABC-1; first compound 2.53 µM) was 0.666, the relative viability (ABC-1; first compound 8 µM) was 0.71 and the relative viability (CAL-12T; first compound 0.08 µM) was 0.31. The relative viability (CAL-12T; first compound 0.253 µM) was 0.482, the relative viability (CAL-12T; first compound 0.8 µM) was 0.418 and the relative viability (CAL-12T; first compound 2.53 µM) was 0.32. For the same compound, the relative viability (CAL-12T; first compound 8 µM) was 0.397, the relative viability (BEN; first compound 0.08 µM) was 0.533 and the relative viability (BEN; first compound 0.253 µM) was 0.671. It also gave a relative viability (BEN; first compound 0.8 µM) of 0.531, a relative viability (BEN; first compound 2.53 µM) of 0.591 and a relative viability (BEN; first compound 8 µM) of 0.686. The relative viability (NCI-H441; first compound 0.08 µM) was 0.533, the relative viability (NCI-H441; first compound 0.253 µM) was 0.472 and the relative viability (NCI-H441; first compound 0.8 µM) was 0.513. For the same compound, the relative viability (NCI-H441; first compound 2.53 µM) was 0.426, the relative viability (NCI-H441; first compound 8 µM) was 0.509 and the relative viability (NCI-H2087; first compound 0.08 µM) was 0.954. It also gave a relative viability (NCI-H2087; first compound 0.253 µM) of 1.15, a relative viability (NCI-H2087; first compound 0.8 µM) of 0.931 and a relative viability (NCI-H2087; first compound 2.53 µM) of 0.87. It also gave a relative viability (NCI-H2087; first compound 8 µM) of 0.973, a relative viability (201T; first compound 0.08 µM) of 0.652 and a relative viability (201T; first compound 0.253 µM) of 0.718. For the same compound, the relative viability (201T; first compound 0.8 µM) was 0.51, the relative viability (201T; first compound 2.53 µM) was 0.616 and the relative viability (201T; first compound 8 µM) was 0.742. The relative viability (NCI-H520; first compound 0.08 µM) was 0.308, the relative viability (NCI-H520; first compound 0.253 µM) was 0.354 and the relative viability (NCI-H520; first compound 0.8 µM) was 0.306. It also gave a relative viability (NCI-H520; first compound 2.53 µM) of 0.273, a relative viability (NCI-H520; first compound 8 µM) of 0.374 and a relative viability (NCI-H1651; first compound 0.08 µM) of 0.512. The relative viability (NCI-H1651; first compound 0.253 µM) was 0.857, the relative viability (NCI-H1651; first compound 0.8 µM) was 0.546 and the relative viability (NCI-H1651; first compound 2.53 µM) was 0.59. For the same compound, the relative viability (NCI-H1651; first compound 8 µM) was 0.509, the relative viability (NCI-H1915; first compound 0.08 µM) was 0.821 and the relative viability (NCI-H1915; first compound 0.253 µM) was 1.01. The relative viability (NCI-H1915; first compound 0.8 µM) was 0.904, the relative viability (NCI-H1915; first compound 2.53 µM) was 0.828 and the relative viability (NCI-H1915; first compound 8 µM) was 0.976. For the same compound, the relative viability (NCI-H1944; first compound 0.08 µM) was 0.324, the relative viability (NCI-H1944; first compound 0.253 µM) was 0.352 and the relative viability (NCI-H1944; first compound 0.8 µM) was 0.29. The relative viability (NCI-H1944; first compound 8 µM) was 0.346, the relative viability (NCI-H650; first compound 0.08 µM) was 0.807 and the relative viability (NCI-H650; first compound 0.253 µM) was 0.873. For the same compound, the relative viability (NCI-H650; first compound 0.8 µM) was 0.741, the relative viability (NCI-H650; first compound 2.53 µM) was 0.806 and the relative viability (NCI-H650; first compound 8 µM) was 0.767. The relative viability (A-427; first compound 0.08 µM) was 0.818, the relative viability (A-427; first compound 0.253 µM) was 0.678 and the relative viability (A-427; first compound 0.8 µM) was 0.634. The relative viability (A-427; first compound 2.53 µM) was 0.623 and the relative viability (A-427; first compound 8 µM) was 0.973.
